Source: patent publication US12351561B2, “Crystalline (2S,4R)-5-(5'-chloro-2'-fluoro-[1,1'-biphenyl]-4-yl)-2-(ethoxymethyl)-4-(3-hydroxyisoxazole-5-carboxamido)-2-methylpentanoic acid and uses thereof” (THERAVANCE BIOPHARMA R&D IP, LLC, priority 2016, dated 2025)

Experiments:
[1] = healthy subjects; cited from earlier work
human neprilysin (NEP) = human neprilysin (NEP) (Homo sapiens, UniProt P08473); assay: in vitro human neprilysin inhibitor activity (pKi); assay type: biochemical
Source text: One measure of the ability of a compound to inhibit NEP activity is the inhibition constant (pKi). The pKi value is the negative logarithm to base 10 of the dissociation constant (Ki), which is typically reported in molar units. The compound of the invention has a pKi at NEP≥9.0.
The in vitro-to-in vivo extrapolation of drug behavior in a subject continues to improve (see, e.g., Chiba et al., AAPS J., 2009 June; 11 (2): 262-276). In the present invention, in vitro human neprilysin inhibitor activity was assessed in order to determine neprilysin inhibitory activity of Compound I and crystalline form I′. A threshold of pKi>9.0 was met. However, additional in vivo experiments were further performed in order to more accurately predict the behavior of Compound I and crystalline form I′ in a subject.

[2] = Dynamic moisture sorption (DMS) assessment; assay type: physicochemical
Procedure: In one embodiment, crystalline form I′ is characterized by the DMS isotherm in FIG. 4. […] The total moisture gain observed is less than 0.02% by weight when exposed to 5-90% relative humidity. No significant hysteresis is found between two consecutive sorption-desorption cycles. […] The crystalline form I′ remains non-hygroscopic and therefore may be characterized as anhydrous, non-hygroscopic or both.
DMS measurements were performed using a VTI atmospheric microbalance, SGA-100 system (VTI Corp., Hialeah, FL 33016). A weighed sample was used and the humidity was lowest possible value (close to 0% relative humidity) at the start of the analysis. The DMS analysis consisted of a scan rate of 5% relative humidity/step over the full humidity range of 5-90%. The DMS run was performed isothermally at 25° C.

[3] = Stability study of crystalline form (25° C./60% RH and accelerated 40° C./75% RH); assay type: physicochemical
Procedure: One challenge in pharmaceutical drug development relates to discovering a stable, crystalline form of a drug having a reasonably high melting point. One challenge of the present invention was that small crystals of the free acid of Compound I were difficult to obtain with the favorable physical properties mentioned above. Once achieved, the small crystals melted around 216° C. and an accelerated stability study of Compound I′ was conducted at the temperatures and % relative humidity (RH) reported below.

[4] = Assay 3.2: PK profile, oral bioavailability and renal excretion in human (SAD, 14C i.v. microtracer); assay type: in vivo; conditions: human, SAD clinical trial, confirmed by intravenous microtracer
Procedure: A Phase 1 single-ascending dose (SAD) clinical trial of Compound I′ (Form I), which converts to or dissolves to provide its soluble form Compound I in the body, was conducted in order to assess neprilysin inhibition for the treatment of a range of cardiovascular and renal diseases, including, e.g., chronic kidney disease, diabetic nephropathy, acute and chronic heart failure, heart failure with reduced ejection fraction, heart failure with preserved ejection fraction, post-myocardial infarction asymptomatic left ventricular dysfunction (post-MI asymptomatic LVD), subacute heart failure and resistant and isolated systolic hypertension. Safety and tolerability, pharmacokinetic (support for QD/BID dosing and non-renal excretion), pharmacodynamic (test for target engagement biomarkers cGMP and ANP), food effect, and absolute oral bioavailability and renal elimination using a ^14C intravenous microtracer, inter alia, were tested.
The Phase 1 study was a double-blind, randomized placebo-controlled single ascending dose study in healthy male and female volunteers randomized in a 4:1 ratio. The study enrolled 56 healthy volunteers over multiple weeks for the ascending-dose portion, which included cohorts (n=10/cohort of 8 active and 2 placebo) administered single ascending doses of 50 mg, 100 mg, 200 mg, 400 mg and 600 mg. A sixth cohort (n=6) was administered i.v. microtracer and oral doses of 10 μg and 100 mg, respectively.

NEP = target: T1, NEP (Homo sapiens, UniProt P08473); assay: Assay 4.1: NEP activity in human (cGMP), multiple-ascending dose study; assay type: in vivo; conditions: once-daily dose, trough (0 h) up to 24 h
T1 construct: from tissue; host or cells: healthy human volunteers (in vivo)
T1 sequence (P08473 whole entry): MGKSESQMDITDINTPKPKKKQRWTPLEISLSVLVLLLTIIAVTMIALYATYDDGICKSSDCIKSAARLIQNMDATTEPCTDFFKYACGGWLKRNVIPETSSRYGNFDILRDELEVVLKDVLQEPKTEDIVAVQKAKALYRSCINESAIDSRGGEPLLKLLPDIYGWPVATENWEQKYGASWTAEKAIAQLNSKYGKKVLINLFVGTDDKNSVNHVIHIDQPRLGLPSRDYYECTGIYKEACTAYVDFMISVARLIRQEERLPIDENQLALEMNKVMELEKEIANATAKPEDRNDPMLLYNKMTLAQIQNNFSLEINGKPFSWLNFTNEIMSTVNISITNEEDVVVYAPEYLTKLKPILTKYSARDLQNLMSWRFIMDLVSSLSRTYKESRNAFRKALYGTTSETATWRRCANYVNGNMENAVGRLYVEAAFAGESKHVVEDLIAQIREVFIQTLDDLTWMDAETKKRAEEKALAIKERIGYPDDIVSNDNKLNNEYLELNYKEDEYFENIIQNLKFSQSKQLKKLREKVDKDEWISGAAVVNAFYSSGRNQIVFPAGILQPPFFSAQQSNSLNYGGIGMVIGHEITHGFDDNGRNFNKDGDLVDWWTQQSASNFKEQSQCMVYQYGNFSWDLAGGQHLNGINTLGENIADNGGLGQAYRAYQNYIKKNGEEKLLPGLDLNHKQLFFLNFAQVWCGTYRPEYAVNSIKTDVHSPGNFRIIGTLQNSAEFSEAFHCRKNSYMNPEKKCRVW
Procedure: The Phase 1 study was a double-blind, randomized placebo-controlled multiple ascending dose study in healthy male and female volunteers randomized in a 4:1 ratio. The study enrolled 50 healthy adult (19-55 years old) and elderly (65-80 years old) volunteers over multiple weeks for the ascending-dose portion, which included cohorts (n=10/cohort of 8 active and 2 placebo) administered (1) ascending doses of 50 mg, 100 mg, and 200 mg, (2) a dose of 10 mg studied in parallel with 200 mg for PK/PK, and (3) a dose of 100 mg for one elderly cohort. […] Additionally, renal elimination of Compound I was neglible after multiple dosing, e.g., <1% was observed on Day 1 and Day 14 for all subjects.
Part of the MAD clinical studies was to determine the mechanism/duration of action of Compound I after dosing in humans.

Chain of human neprilysin (NEP) (P08473 whole entry): as above

In the case of `CCOC(=O)[C@H](C)C[C@@H](Cc1ccc(-c2ccccc2)cc1)NC(=O)CCC(=O)O` [sacubitril], the renal elimination [1] is given as 60%.

For `CCOC[C@](C)(C[C@@H](Cc1ccc(-c2cc(Cl)ccc2F)cc1)NC(=O)c1cc(O)no1)C(=O)O` [Compound I′, (2S,4R)-5-(5′-chloro-2′-fluoro-[1,1′-biphenyl]-4-yl)-2-(ethoxymethyl)-4-(3-hydroxyisoxazole-5-carboxamido)-2-methylpentanoic acid], the Ki (human neprilysin (NEP)) was at most 1 nM, the “hygroscopicity (DMS isotherm)” value ([2]; 5-90% relative humidity, two sorption-desorption cycles) was “non-hygroscopic solid” and the total moisture gain ([2]; exposed to 5-90% relative humidity, 25° C.) was “less than 0.02 % by weight”. The “time for which the crystalline form remains stable” value ([3]; 25° C., 60% RH) was “at least 18 months”, the Assay ([3]; 25° C., 60% RH, 0 months) was 98.6 % (w/w) and the “Water Content” value ([3]; 25° C., 60% RH, 0 months, LOQ = 0.2%) was “<LOQ”. For the same compound, the Assay ([3]; 25° C., 60% RH, 3 months) was 98.5 % (w/w), the Assay ([3]; 25° C., 60% RH, 6 months) was 99.2 % (w/w) and the “Water Content” value ([3]; 25° C., 60% RH, 6 months, LOQ = 0.19%) was “<LOQ”. The Assay ([3]; 25° C., 60% RH, 9 months) was 99.0 % (w/w), the Assay ([3]; 25° C., 60% RH, 12 months) was 99.2 % (w/w) and the “Water Content” value ([3]; 25° C., 60% RH, 12 months, LOQ = 0.19%) was “<LOQ”. The Assay ([3]; 25° C., 60% RH, 18 months) was 99.1 % (w/w), the Assay ([3]; 40° C., 75% RH (accelerated), 0 months) was 98.6 % (w/w) and the “Water Content” value ([3]; 40° C., 75% RH (accelerated), 0 months, LOQ = 0.2%) was “<LOQ”. The Assay ([3]; 40° C., 75% RH (accelerated), 1 month) was 98.5 % (w/w), the Assay ([3]; 40° C., 75% RH (accelerated), 3 months) was 98.6 % (w/w) and the “Water Content” value ([3]; 40° C., 75% RH (accelerated), 3 months, LOQ = 0.22%) was “<LOQ”. For the same compound, the Assay ([3]; 40° C., 75% RH (accelerated), 6 months) was 99.0 % (w/w), the “Water Content” value ([3]; 40° C., 75% RH (accelerated), 6 months, LOQ = 0.19%) was “<LOQ” and the water detected ([3]; at 12-months) was “no quantifiable amount of water is detected”. The “time for which the crystalline form remains stable” value ([3]; measured by accelerated conditions of 40° C., 75% RH (6 months taken as equivalent to 2 years at 25° C., 60% RH)) was “at least 2 years”, the “renal elimination (of total administered dose)” value [4] was “less than 1%” and the “target engagement (plasma cGMP) on Day 14” value (NEP) was “target engagement of all doses at trough (0 h) as well as all doses measured up to 24 h”.
